Legend:
Test in all cases: Test C pre-/postemergence greenhouse test
Format in all cases: in vivo
Settings in all cases: scale 0 to 100
[1] = system: ryegrass, Italian (Lolium multiflorum)
Text: (§1) Seeds of plant species selected from blackgrass (Alopecurus myosuroides), ryegrass, Italian (Lolium multiflorum), wheat, winter (winter wheat, Triticum aestivum), galium (catchweed bedstraw, Galium aparine), corn (Zea mays), crabgrass, large (Digitaria sanguinalis), foxtail, giant (Setaria faberii), johnsongrass (Sorghum halepense), lambsquarters (Chenopodium album), morningglory (Ipomoea coccinea), nutsedge, yellow (Cyperus esculentus), pigweed (Amaranthus retroflexus), ragweed (common ragweed, Ambrosia elatior), soybean (Glycine max), barnyardgrass (Echinochloa crus-galli), oilseed rape (Brassica napus), waterhemp (common waterhemp, Amaranthus rudis), pigweed, palmer (Amaranthus palmeri), kochia (Kochia scoparia), oat, wild (Avena fatua), surinam grass (Brachiaria decumbens), windgrass (Apera spica-venti), poinsettia, wild (Euphorbia heterophylla) and velvetleaf (Abutilon theophrasti) were planted into a silt loam soil and treated preemergence with test chemicals formulated in a non-phytotoxic solvent mixture which included a surfactant.
(§2) At the same time, plants selected from these crop and weed species and also chickweed (common chickweed, Stellaria media), buckwheat, wild (Polygonum convolvulus), mustard, wild (Sinapis arvensis), field poppy (Papaver rhoeas), field violet (Viola arvensis), nightshade (eastern black nightshade, Solanum ptycanthum), speedwell (bird's-eye speedwell, Veronica persica), horseweed (Conyza canadensis), cutleaf geranium (Geranium dissectum), and Canada thistle (Cirsium arvense) were planted in pots containing Redi-Earth® planting medium (Scotts Company, 14111 Scottslawn Road, Marysville, Ohio 43041) comprising spaghnum peat moss, vermiculite, wetting agent and starter nutrients and treated with postemergence applications of test chemicals formulated in the same manner. Plants ranged in height from 2 to 18 cm (1- to 4-leaf stage) for postemergence treatments. Treated plants and controls were maintained in a greenhouse for 13 to 21 d, after which time all species were compared to controls and visually evaluated. Plant response ratings, summarized in Table C-1 (postemergence) and C-2 (preemergence), are based on a scale of 0 to 100 where 0 is no effect and 100 is complete control. A dash (-) response means no test result.

[2] = system: ragweed (common ragweed, Ambrosia elatior)
Text: as §1, §2

corn (Zea mays) = system: corn (Zea mays)
Text: as §1, §2

[3] = system: nutsedge, yellow (Cyperus esculentus)
Text: as §1, §2

[4] = system: morningglory (Ipomoea coccinea)
Text: as §1, §2

[5] = system: blackgrass (Alopecurus myosuroides)
Text: as §1, §2

[6] = system: oilseed rape (Brassica napus)
Text: as §1, §2

[7] = system: galium (catchweed bedstraw, Galium aparine)
Text: as §1, §2

[8] = system: crabgrass, large (Digitaria sanguinalis)
Text: as §1, §2

[9] = system: velvetleaf (Abutilon theophrasti)
Text: as §1, §2

soybean (Glycine max) = system: soybean (Glycine max)
Text: as §1, §2

## Cc1ccc2ccc(C)c(-c3c(O)c(Cl)nn(C)c3=O)c2c1 [Cpd. No. 20, 6-chloro-4-(2,7-dimethyl-1-naphthalenyl)-5-hydroxy-2-methyl-3(2H)-pyridazinone]
[1]; Postemergence, 16 g ai/ha
  Plant response rating, Ryegrass, Italian: 65
[1]; Postemergence, 31 g ai/ha
  Plant response rating, Ryegrass, Italian: 85
[1]; Postemergence, 62 g ai/ha
  Plant response rating, Ryegrass, Italian: 95
[1]; Postemergence, 125 g ai/ha
  Plant response rating, Ryegrass, Italian: 95
[1]; Preemergence, 31 g ai/ha
  Plant response rating, Ryegrass, Italian: 100
[1]; Preemergence, 61 g ai/ha
  Plant response rating, Ryegrass, Italian: 98
[1]; Preemergence, 62 g ai/ha
  Plant response rating, Ryegrass, Italian: 100
[1]; Preemergence, 125 g ai/ha
  Plant response rating, Ryegrass, Italian: 100
[2]; Postemergence, 16 g ai/ha
  Plant response rating, Ragweed: 85
[2]; Postemergence, 31 g ai/ha
  Plant response rating, Ragweed: 90
[2]; Postemergence, 62 g ai/ha
  Plant response rating, Ragweed: 95
[2]; Postemergence, 125 g ai/ha
  Plant response rating, Ragweed: 98
[2]; Preemergence, 31 g ai/ha
  Plant response rating, Ragweed: 100
[2]; Preemergence, 61 g ai/ha
  Plant response rating, Ragweed: 65
[2]; Preemergence, 62 g ai/ha
  Plant response rating, Ragweed: 100
[2]; Preemergence, 125 g ai/ha
  Plant response rating, Ragweed: 100
Corn (Zea mays); Postemergence, 16 g ai/ha
  Plant response rating, Corn: 0
Corn (Zea mays); Postemergence, 31 g ai/ha
  Plant response rating, Corn: 5
Corn (Zea mays); Postemergence, 62 g ai/ha
  Plant response rating, Corn: 5
Corn (Zea mays); Postemergence, 125 g ai/ha
  Plant response rating, Corn: 20
Corn (Zea mays); Preemergence, 31 g ai/ha
  Plant response rating, Corn: 0
Corn (Zea mays); Preemergence, 61 g ai/ha
  Plant response rating, Corn: 0
Corn (Zea mays); Preemergence, 62 g ai/ha
  Plant response rating, Corn: 5
Corn (Zea mays); Preemergence, 125 g ai/ha
  Plant response rating, Corn: 35
[3]; Postemergence, 16 g ai/ha
  Plant response rating, Nutsedge, Yellow: 90
[3]; Postemergence, 31 g ai/ha
  Plant response rating, Nutsedge, Yellow: 90
[3]; Postemergence, 62 g ai/ha
  Plant response rating, Nutsedge, Yellow: 95
[3]; Postemergence, 125 g ai/ha
  Plant response rating, Nutsedge, Yellow: 98
[3]; Preemergence, 31 g ai/ha
  Plant response rating, Nutsedge, Yellow: 95
[3]; Preemergence, 61 g ai/ha
  Plant response rating, Nutsedge, Yellow: 40
[3]; Preemergence, 62 g ai/ha
  Plant response rating, Nutsedge, Yellow: 95
[3]; Preemergence, 125 g ai/ha
  Plant response rating, Nutsedge, Yellow: 98
[4]; Postemergence, 16 g ai/ha
  Plant response rating, Morningglory: 100
[4]; Postemergence, 31 g ai/ha
  Plant response rating, Morningglory: 100
[4]; Postemergence, 62 g ai/ha
  Plant response rating, Morningglory: 100
[4]; Postemergence, 125 g ai/ha
  Plant response rating, Morningglory: 100
[4]; Preemergence, 31 g ai/ha
  Plant response rating, Morningglory: 85
[4]; Preemergence, 61 g ai/ha
  Plant response rating, Morningglory: 70
[4]; Preemergence, 62 g ai/ha
  Plant response rating, Morningglory: 95
[4]; Preemergence, 125 g ai/ha
  Plant response rating, Morningglory: 95
[5]; Postemergence, 16 g ai/ha
  Plant response rating, Blackgrass: 20
[5]; Postemergence, 31 g ai/ha
  Plant response rating, Blackgrass: 30
[5]; Postemergence, 62 g ai/ha
  Plant response rating, Blackgrass: 40
[5]; Postemergence, 125 g ai/ha
  Plant response rating, Blackgrass: 45
[5]; Preemergence, 31 g ai/ha
  Plant response rating, Blackgrass: 85
[5]; Preemergence, 61 g ai/ha
  Plant response rating, Blackgrass: 20
[5]; Preemergence, 62 g ai/ha
  Plant response rating, Blackgrass: 85
[5]; Preemergence, 125 g ai/ha
  Plant response rating, Blackgrass: 90
[6]; Postemergence, 16 g ai/ha
  Plant response rating, Oilseed Rape: 0
[6]; Postemergence, 31 g ai/ha
  Plant response rating, Oilseed Rape: 0
[6]; Postemergence, 62 g ai/ha
  Plant response rating, Oilseed Rape: 0
[6]; Postemergence, 125 g ai/ha
  Plant response rating, Oilseed Rape: 0
[6]; Preemergence, 31 g ai/ha
  Plant response rating, Oilseed Rape: 0
[6]; Preemergence, 61 g ai/ha
  Plant response rating, Oilseed Rape: 0
[6]; Preemergence, 62 g ai/ha
  Plant response rating, Oilseed Rape: 0
[6]; Preemergence, 125 g ai/ha
  Plant response rating, Oilseed Rape: 0
[7]; Postemergence, 16 g ai/ha
  Plant response rating, Galium: 95
[7]; Postemergence, 31 g ai/ha
  Plant response rating, Galium: 95
[7]; Postemergence, 62 g ai/ha
  Plant response rating, Galium: 95
[7]; Postemergence, 125 g ai/ha
  Plant response rating, Galium: 95
[7]; Preemergence, 31 g ai/ha
  Plant response rating, Galium: 100
[7]; Preemergence, 61 g ai/ha
  Plant response rating, Galium: 98
[7]; Preemergence, 62 g ai/ha
  Plant response rating, Galium: 100
[7]; Preemergence, 125 g ai/ha
  Plant response rating, Galium: 100
[8]; Postemergence, 16 g ai/ha
  Plant response rating, Crabgrass, Large: 40
[8]; Postemergence, 31 g ai/ha
  Plant response rating, Crabgrass, Large: 40
[8]; Postemergence, 62 g ai/ha
  Plant response rating, Crabgrass, Large: 70
[8]; Postemergence, 125 g ai/ha
  Plant response rating, Crabgrass, Large: 80
[8]; Preemergence, 31 g ai/ha
  Plant response rating, Crabgrass, Large: 60
[8]; Preemergence, 61 g ai/ha
  Plant response rating, Crabgrass, Large: 60
[8]; Preemergence, 62 g ai/ha
  Plant response rating, Crabgrass, Large: 95
[8]; Preemergence, 125 g ai/ha
  Plant response rating, Crabgrass, Large: 100
[9]; Postemergence, 16 g ai/ha
  Plant response rating, Velvetleaf: 70
[9]; Postemergence, 31 g ai/ha
  Plant response rating, Velvetleaf: 75
[9]; Postemergence, 62 g ai/ha
  Plant response rating, Velvetleaf: 85
[9]; Postemergence, 125 g ai/ha
  Plant response rating, Velvetleaf: 90
[9]; Preemergence, 31 g ai/ha
  Plant response rating, Velvetleaf: 100
[9]; Preemergence, 61 g ai/ha
  Plant response rating, Velvetleaf: 85
[9]; Preemergence, 62 g ai/ha
  Plant response rating, Velvetleaf: 100
[9]; Preemergence, 125 g ai/ha
  Plant response rating, Velvetleaf: 100
Soybean (Glycine max); Postemergence, 16 g ai/ha
  Plant response rating, Soybean: 0
Soybean (Glycine max); Postemergence, 31 g ai/ha
  Plant response rating, Soybean: 10
Soybean (Glycine max); Postemergence, 62 g ai/ha
  Plant response rating, Soybean: 10
Soybean (Glycine max); Postemergence, 125 g ai/ha
  Plant response rating, Soybean: 20
Soybean (Glycine max); Preemergence, 31 g ai/ha
  Plant response rating, Soybean: 0
Soybean (Glycine max); Preemergence, 61 g ai/ha
  Plant response rating, Soybean: 0
Soybean (Glycine max); Preemergence, 62 g ai/ha
  Plant response rating, Soybean: 20
Soybean (Glycine max); Preemergence, 125 g ai/ha
  Plant response rating, Soybean: 60
